Reference: patent US6720339B2, “Certain fused pyrrolecarboxamides; a new class of GABA brain receptor ligands” (Neurogen Corporation, priority 1996, dated 2004)

Target: GABAa receptor (benzodiazepine receptor)
Test: GABAa receptor binding assay (3H-RO15-1788 [3H-Flumazenil] displacement, rat cortical tissue homogenate)
Details: radioligand 0.5 nM 3H-RO15-1788 (3H-Flumazenil), 30 min at 4° C.
Experimental: The pharmaceutical utility of compounds of this invention are indicated by the following assay for GABAa receptor binding activity.
Assays are carried out as described in Thomas and Tallman (J. Bio. Chem. 156: 9838-9842, J. Neurosci. 3: 433-440, 1983). Rat cortical tissue is dissected and homogenized in 25 volumes (w/v) of 0.05 M Tris HCl buffer (pH 7.4 at 4° C.). The tissue homogenate is centrifuged in cold (4° C.) at 20,000×g for 20′. The supernatant is decanted and the pellet is rehomogenized in the same volume of buffer and again centrifuged at 20,000×g. The supernantant is decanted and the pellet is frozen at −20° C. overnight. The pellet is then thawed and rehomogenized in 25 volume (orginal wt/vol) of buffer and the procedure is carried out twice. The pellet is finally resuspended in 50 volumes (w/vol of 0.05 M Tris HCl buffer (pH 7.4 at […]).
Incubations contain […] of tissue homogenate, […] of radioligand 0.5 nM (^3H-RO15-1788 [^3H-Flumazenil] specific activity 80 Ci/mmol), drug or blocker and buffer to a total volume of […]. Incubations are carried for 30 min at 4° C. then are rapidly filtered through GFB filters to separate free and bound ligand. Filters are washed twice with fresh 0.05 M Tris HCl buffer (pH 7.4 at 4° C.) and counted in a liquid scintillation counter. 1.0 mM diazepam is added to some tubes to determine nonspecific binding. Data are collected in triplicate determinations, averaged and % inhabition of total specific binding is calculated. Total Specific Binding=Total−Nonspecific. In some cases, the amounts of unlabeled drugs is varied and total displacement curves of binding are carried out.
In the case of `CC1(C)CC(=O)c2c(C(=O)Nc3ccccc3)c[nH]c2C1` [Compound 1, N-Phenyl-4-oxo-6,6-dimethyl-4,5,6,7-tetrahydro-1H-indole-3-carboxamide], the Ki is reported as 21 nM. In the case of `CC1(C)CC(=O)c2c(C(=O)Nc3ccccc3F)c[nH]c2C1` [Compound 2], the Ki is reported as 12 nM. `COc1ccc(NC(=O)c2c[nH]c3c2C(=O)CC(C)(C)C3)cc1` [Compound 3, N-(4-Methoxyphenyl)-4-oxo-6,6-dimethyl-4,5,6,7-tetrahydro-1H-indole-3-carboxamide] showed a Ki of 13 nM. `CC1CC(=O)c2c(C(=O)Nc3ccccc3)c[nH]c2C1` (stereo not shown) [Compound 4, N-Phenyl-4-oxo-6-methyl-4,5,6,7-tetraydro-1H-indole-3-carboxamide] showed a Ki of 1 nM. Work on `CC1CC(=O)c2c(C(=O)Nc3ccccc3F)c[nH]c2C1` (stereo not shown) [Compound 5, N-(2-Fluorophenyl)-4-oxo-6-methyl-4,5,6,7-tetrahydro-1H-indole-3-carboxamide] yielded a Ki of 0.5 nM. Work on `COc1ccc(NC(=O)c2c[nH]c3c2C(=O)CC(C)C3)c(F)c1` (stereo not shown) [Compound 6, N-(2-Fluoro-4-methoxyphenyl)-4-oxo-6-methyl-4,5,6,7-tetrahydro-1H-indole-3-carboxamide] yielded a Ki of 1 nM. In the case of `CC1(C)CC(=O)c2c(C(=O)Nc3ccsc3)c[nH]c2C1` [Compound 7, N-(3-Thienyl)-4-oxo-6,6-dimethyl-4,5,6,7-tetrahydro-1H-indole-3-caboxamide], the Ki is reported as 10 nM. `CC1(C)CC(=O)c2c(C(=O)Nc3ccc4cccnc4n3)c[nH]c2C1` [Compound 8, N-(1,8-Napthyridin-2yl)-4-oxo-6,6-dimethyl-4,5,6,7-tetrahydro-1H-indole-3-carboxamide] gave a Ki of 80 nM. Molecule `CC1CC(=O)c2c(C(=O)Nc3ccc4cccnc4n3)c[nH]c2C1` (stereo not shown) [Compound 9, N-(1,8-Napthyridin-2-yl)-4-oxo-6-methyl-4,5,6,7-tetahydro-1H-indole-3-carboxamide] has a Ki of 4 nM. Work on `CC1CC(=O)c2c(C(=O)Nc3ccc4ccccc4n3)c[nH]c2C1` (stereo not shown) [Compound 10, N-(2-Quinolinyl)-4-oxo-6-methyl-4,5,6,7-tetrahydro-1H-indole-3-carboxamide] yielded a Ki of 12 nM.

Tested on: not given
Test: not given
Details: not given
With `CC1CC(=O)c2c(C(=O)Nc3ccccc3)c[nH]c2C1` (stereo not shown) [Compound 4, N-Phenyl-4-oxo-6-methyl-4,5,6,7-tetraydro-1H-indole-3-carboxamide] the melting point was 278 to 279 °C. `CC1CC(=O)c2c(C(=O)Nc3ccccc3F)c[nH]c2C1` (stereo not shown) [Compound 5, N-(2-Fluorophenyl)-4-oxo-6-methyl-4,5,6,7-tetrahydro-1H-indole-3-carboxamide] showed a melting point of 264 to 265 °C. For `COc1ccc(NC(=O)c2c[nH]c3c2C(=O)CC(C)C3)c(F)c1` (stereo not shown) [Compound 6, N-(2-Fluoro-4-methoxyphenyl)-4-oxo-6-methyl-4,5,6,7-tetrahydro-1H-indole-3-carboxamide], the melting point was 217 to 219 °C. `CC1(C)CC(=O)c2c(C(=O)Nc3ccc4cccnc4n3)c[nH]c2C1` [Compound 8, N-(1,8-Napthyridin-2yl)-4-oxo-6,6-dimethyl-4,5,6,7-tetrahydro-1H-indole-3-carboxamide] gave a melting point of 389 to 390 °C. In the case of `CC1CC(=O)c2c(C(=O)Nc3ccc4ccccc4n3)c[nH]c2C1` (stereo not shown) [Compound 10, N-(2-Quinolinyl)-4-oxo-6-methyl-4,5,6,7-tetrahydro-1H-indole-3-carboxamide], the melting point is reported as 273 to 275 °C. Work on `CC1(C)CC(=O)c2c(C(=O)Nc3cccc(F)c3)c[nH]c2C1` [Example 3(b), N-(3-Fluorophenyl)-4-oxo-6,6-dimethyl-4,5,6,7-tetrahydro-1H-indole-3-carboxamide] yielded a melting point of 259 to 261 °C. Work on `CCOc1ccc(NC(=O)c2c[nH]c3c2C(=O)CC(C)C3)c(F)c1` (stereo not shown) [Example 3(bb), N-(2-Fluoro-4-ethoxyphenyl)-4-oxo-6-methyl-4,5,6,7-tetrahydro-1H-indole-3-carboxamide] yielded a melting point of 224 to 225 °C. `CC1(C)CC(=O)c2c(C(=O)Nc3ccc(F)cc3)c[nH]c2C1` [Example 3(c), N-(4-Fluorophenyl)-4-oxo-6,6-dimethyl-4,5,6,7-tetrahydro-1H-indole-3-carboxamide] showed a melting point of 268 to 270 °C. Molecule `CC1CC(=O)c2c(C(=O)Nc3ccc(O)c(O)c3)c[nH]c2C1` (stereo not shown) [Example 3(cc), N-(3,4-Dihydroxyphenyl)-4-oxo-6-methyl-4,5,6,7-tetrahydro-1H-indole-3-carboxamide] has a melting point of 267 to 269 °C. `Cc1ccc(NC(=O)c2c[nH]c3c2C(=O)CC(C)C3)c(O)c1` (stereo not shown) [Example 3(dd), N-(2-Hydroxy-4-methylphenyl)-4-oxo-6-methyl-4,5,6,7-tetrahydro-1H-indole-3-carboxamide] gave a melting point of 258 to 260 °C. `COc1ccc(NC(=O)c2c[nH]c3c2C(=O)CC(C)(C)C3)c(O)c1` [Example 3(g), N-(2-Hydroxy-4-methoxyphenyl)-4-oxo-6,6-dimethyl-4,5,6,7-tetrahydro-1H-indole-3-carboxamide] gave a melting point of 190 to 192 °C. Work on `COc1ccc(NC(=O)c2c[nH]c3c2C(=O)CC(C)(C)C3)cc1O` [Example 3(h), N-(3-Hydroxy-4-methoxyphenyl)-4-oxo-6,6-dimethyl-4,5,6,7-tetrahydro-1H-indole-3-carboxamide] yielded a melting point of 282 to 284 °C. In the case of `CC1(C)CC(=O)c2c(C(=O)Nc3cccnc3)c[nH]c2C1` [Example 3(hh), N-(3-Pyridyl)-4-oxo-6,6-dimethyl-4,5,6,7-tetrahydro-1H-indole-3-carboxamide], the melting point is reported as 237 to 239 °C. In the case of `COc1ccc(NC(=O)c2c[nH]c3c2C(=O)CC(C)(C)C3)c(F)c1` [Example 3(i), N-(2-Fluoro-4-methoxyphenyl)-4-oxo-6,6-dimethyl-4,5,6,7-tetrahydro-1H-indole-3-carboxamide], the melting point is reported as 213 to 215 °C. `COc1ccncc1NC(=O)c1c[nH]c2c1C(=O)CC(C)(C)C2` [Example 3(ii), N-(4-Methoxy-3-pyridyl)-4-oxo-6,6-dimethyl-4,5,6,7-tetrahydro-1H-indole-3-carboxamide] showed a melting point of 217 to 218 °C. `CC1(C)CC(=O)c2c(C(=O)Nc3ccc(O)cc3F)c[nH]c2C1` [Example 3(l), N-(2-Fluoro-4-hydroxyphenyl)-4-oxo-6,6-dimethyl-4,5,6,7-tetrahydro-1H-indole-3-carboxamide] showed a melting point of 225 to 227 °C. `CC1CC(=O)c2c(C(=O)Nc3cccnc3)c[nH]c2C1` (stereo not shown) [Example 3(ll), N-(3-Pyridyl)-4-oxo-6-methyl-4,5,6,7-tetrahydro-1H-indole-3-carboxamide] showed a melting point of 225 to 227 °C. `CC1CC(=O)c2c(C(=O)Nc3ccncc3)c[nH]c2C1` (stereo not shown) [Example 3(mm), N-(4-Pyridyl)-4-oxo-6-methyl-4,5,6,7-tetrahydro-1H-indole-3-carboxamide] gave a melting point of 280 to 290 °C. For `CC1CC(=O)c2c(C(=O)Nc3cccc(F)c3)c[nH]c2C1` (stereo not shown) [Example 3(s), N-(3-Fluorophenyl)-4-oxo-6-methyl-4,5,6,7-tetrahydro-1H-indole-3-carboxamide], the melting point was 302 to 303 °C. Work on `CC1CC(=O)c2c(C(=O)Nc3ccc(F)cc3)c[nH]c2C1` (stereo not shown) [Example 3(t), N-(4-Fluorophenyl)-4-oxo-6-methyl-4,5,6,7-tetrahydro-1H-indole-3-carboxamide] yielded a melting point of 262 to 264 °C. In the case of `COc1cccc(NC(=O)c2c[nH]c3c2C(=O)CC(C)C3)c1` (stereo not shown) [Example 3(u), N-(3-Methoxyphenyl)-4-oxo-6-methyl-4,5,6,7-tetrahydro-1H-indole-3-carboxamide], the melting point is reported as 234 to 235 °C. `CC1CC(=O)c2c(C(=O)Nc3ccc(O)cc3)c[nH]c2C1` (stereo not shown) [Example 3(v), N-(4-Hydroxyphenyl)-4oxo-6-methyl-4,5,6,7-tetrahydro-1H-indole-3-carboxamide] gave a melting point of 320 °C. With `COc1ccc(NC(=O)c2c[nH]c3c2C(=O)CC(C)C3)c(O)c1` (stereo not shown) [Example 3(x), N-(2-Hydroxy-4-methoxyphenyl)-4-oxo-6methyl-4,5,6,7-tetrahydro-1H-indole-3-carboxamide] the melting point was 236 to 238 °C. In the case of `COc1ccc(NC(=O)c2c[nH]c3c2C(=O)CC(C)C3)cc1` (stereo not shown) [Example 3(y), N-(4-Methoxyphenyl)-4-oxo-6-methyl-4,5,6,7-tetrahydro-1H-indole-3-carboxamide], the melting point is reported as 260 to 261 °C.
